The values that follow come from patent US9682965B2, “Fumagillol heterocyclic compounds and methods of making and using same” (Zafgen, Inc., priority 2015, dated 2017).

SMILES strings stand for the structures. Counter-ions that a name gives are not always drawn. Like-named read-outs stand apart in the source and are kept apart here. A value given as a limit tells only on which side of the number the result lay.

The target of one series is recombinant human MetAP2 (Homo sapiens (Human), UniProt P50579). Briefly: recombinant human MetAP2 enzyme inhibition assay. Type of series: biochemical. The gist of the method: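 Flag-tagged human recombinant MetAP2, preincubated with MnCl2, acting on MAS peptide substrate with coupled amino acid oxidase in 50 mM HEPES, 100 mM NaCl, pH 7.5. Incubation 25 min at 25 °C, then Amplex detection reagent added for fluorescence read-out. Duplicates, two runs, no-enzyme blanks.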
recombinant human MetAP2, sequence (P50579 whole entry): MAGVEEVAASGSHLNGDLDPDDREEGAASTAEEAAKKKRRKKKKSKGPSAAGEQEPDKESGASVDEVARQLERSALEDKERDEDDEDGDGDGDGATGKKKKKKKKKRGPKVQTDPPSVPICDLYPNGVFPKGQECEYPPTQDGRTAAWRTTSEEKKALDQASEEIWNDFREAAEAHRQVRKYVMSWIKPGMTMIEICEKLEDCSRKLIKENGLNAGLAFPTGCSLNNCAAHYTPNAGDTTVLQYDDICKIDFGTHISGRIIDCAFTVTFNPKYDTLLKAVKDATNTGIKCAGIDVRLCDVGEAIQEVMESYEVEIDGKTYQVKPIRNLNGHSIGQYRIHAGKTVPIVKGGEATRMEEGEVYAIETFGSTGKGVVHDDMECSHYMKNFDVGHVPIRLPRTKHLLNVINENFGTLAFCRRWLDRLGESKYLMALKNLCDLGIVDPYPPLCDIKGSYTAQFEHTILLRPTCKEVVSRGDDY

Series [1] has as its system Diet Induced Obese (DIO) C57BL/6 mice. As to the kind of experiment: 10 day DIO mouse model (body weight, food intake, hematology, blood chemistry). Type of series: in vivo. The following applies: 240 h, read-out: DIO Mouse 10-day weight loss vs vehicle. The gist of the method: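 DIO C57BL/6 mice on 60% kcal fat diet received compounds subcutaneously once daily for 10 days at 1.0, 0.5, 0.3, 0.1 or 0.03 mpk, in 10% DMSO in water, after 3-day vehicle acclimation. Body weight and food intake were recorded daily. Hematology and blood chemistry were taken on Day 11, 24 h post-final dose.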

For series [2], the system named is Male Sprague Dawley rats on high fat diet. As to the kind of experiment: 11 day rat DIO model (body weight, food intake, hematology, blood chemistries). The following applies: 264 h, read-out: DIO Rat 11-day weight loss vs vehicle. Type of series: in vivo. The gist of the method: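 Male Sprague Dawley rats on 45% high-fat diet, acclimated 3 days to vehicle injections, then given compound (0.03-1.0 mg/kg) or vehicle (10% DMSO in water) sc once daily for 11 days. Body weight and food intake recorded daily. Blood taken about 2 h after the final dose for hematology and chemistry.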

In series [3] the test system is pregnant Sprague Dawley rats (embryo/fetal development). The text has this:
Study Summary Rat Embryofetal:
The objective of this study design was to evaluate the potential effects of disclosed compounds on embryo/fetal development when given subcutaneously to pregnant rats once every three days during the critical period of organogenesis (Gestation Days 6-18). Female, Sprague Dawley rats, approximately 10 weeks of age, time bred, were ordered from a certified vendor and housed individually housed in stainless steel cages suspended over flush pans, on a 12-hour light-dark cycle (0700-1900) at 20-26° C. and 30-70% humidity. Rats were fed a standard rodent chow and provided water ad libitum. Rats were received and housed in the facility for a period of approximately 1 to 2 days.
Compounds were formulated using 100% DMSO mixed in Sterile Water for Injection, resulting in 2% DMSO solution in water. If necessary, due to limited solubility of a test article, a higher percentage of DMSO solution in water was used. Groups of 8 mated and presumed pregnant female rats were given subcutaneous doses of vehicle or test article, once every three days, beginning on Gestation Day 6 and ending on Gestation Day 18 (Days 6, 9, 12, 15, and 18), maintained two more days, and then euthanized and necropsied on Gestation Day 20. Body weights was recorded for all animals on Gestation Days 5 (purpose of randomization), 6, 9, 12, 15, 18, and 20 (scheduled euthanasia). Food consumption by weight was recorded on Gestation Days 6, 9, 12, 15, 18, and 20 (scheduled termination).
At necropsy, the dams were examined visually for external abnormalities including palpable masses. The abdominal, thoracic, and cranial cavities and their contents were examined for abnormalities and findings will be recorded. The reproductive tract were examined to record the number of ovarian corpora lutea, the number and location of uterine implantation sites noting the position of the cervix, and the number of early resorptions, late resorptions, live fetuses, and dead fetuses. For dead fetuses and late resorptions, crown-to-rump length and weight were recorded, if possible, and the fetus was discarded. For viable fetuses, weight, sex, and grossly visible external abnormalities were recorded.

`CCN(CC)CCNC(=O)CCC1CN(C(=O)O[C@@H]2CC[C@]3(CO3)[C@@H]([C@@]3(C)O[C@@H]3CC=C(C)C)[C@@H]2OC)C1` [Example 88, (3R,4S,5S,6R)-5-methoxy-4-((2R,3R)-2-methyl-3-(3-methylbut-2-enyl)oxiran-2-yl)-1-oxaspiro[2.5]octan-6-yl 3-(3-(2-(diethylamino)ethylamino)-3-oxopropyl)azetidine-1-carboxylate formate]: on recombinant human MetAP2, the 50% inhibitory concentration (IC50) is less than 0.05 µM. Moreover, the inhibition in vivo at 0.3 mg/kg is 9% in series [1] (Mus musculus, sc) and 4.4% in series [2] (Rattus norvegicus, sc). In addition, in series [3] (rat, in vivo), the “Rat Embryofetal @6 mpk” value is recorded as “Positive”.

As for `CCN(CC)CCC1CN(C(=O)O[C@@H]2CC[C@]3(CO3)[C@@H]([C@@]3(C)O[C@@H]3CC=C(C)C)[C@@H]2OC)C1` [Example 103, (3R,4S,5S,6R)-5-methoxy-4-((2R,3R)-2-methyl-3-(3-methylbut-2-enyl)oxiran-2-yl)-1-oxaspiro[2.5]octan-6-yl 3-(2-(diethylamino)ethyl)azetidine-1-carboxylate], at recombinant human MetAP2 (recombinant human MetAP2, MAS peptide substrate, 25 minutes at 25° C), the half-inhibitory concentration (IC50) is less than 0.05 µM. The inhibition in vivo at 0.1 mg/kg in series [1] (DIO mouse, 0.1 mpk sc, once a day for 10 days) came out at 5.1%. For the same compound, in series [1] (DIO mouse, 0.3 mpk sc, once a day for 10 days), the inhibition in vivo at 0.3 mg/kg was 6.7%. In addition, the inhibition in vivo at 1 mg/kg in series [1] (DIO mouse, 1.0 mpk sc, once a day for 10 days) came to 15.8%; in series [2] (DIO rat, 1.0 mpk sc, once a day for 11 days), 4.7%. The inhibition in vivo at 0.5 mg/kg in series [2] (DIO rat, 0.5 mpk sc, once a day for 11 days) is 2.57%. The “Rat Embryofetal @6 mpk” value in series [3] (6 mpk, subcutaneous, once every three days, Gestation Days 6-18, pregnant rats) was “Positive”.
